Several values for one entry are separate records, joined by “and”; a condition that tells them apart may be missing. Equal entries are not always repeated. Inconclusive results and toxic doses are left out. Rule as the data show it: active = T/C of 150% or more; inactive = T/C below 125%.
Test system: L1210 leukemia ip in BDF1 mice, survival T/C
Assay: NCI In Vivo Anticancer Drug Screen. Data for tumor model L1210 Leukemia (intraperitoneal) in B6D2F1 (BDF1) mice
Conditions: endpoint: mean survival time, higher = longer survival
Method in brief: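 Read-out is survival time, reported as the treated-group measurement over the vehicle-control measurement.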

[1] = dose: 100.0 mg/kg/injection, schedule: Q01DX001 (ip), vehicle: saline
[2] = dose: 200.0 mg/kg/injection, schedule: Q01DX001 (ip), vehicle: saline
[3] = dose: 400.0 mg/kg/injection, schedule: Q01DX001 (ip), vehicle: saline
[4] = dose: 50.0 mg/kg/injection, schedule: Q01DX001 (ip), vehicle: carboxymethylcellulose (CMC)
[5] = dose: 100.0 mg/kg/injection, schedule: Q01DX001 (ip), vehicle: carboxymethylcellulose (CMC)
[6] = dose: 200.0 mg/kg/injection, schedule: Q01DX001 (ip), vehicle: carboxymethylcellulose (CMC)
[7] = dose: 400.0 mg/kg/injection, schedule: Q01DX001 (ip), vehicle: carboxymethylcellulose (CMC)
[8] = dose: 50.0 mg/kg/injection, schedule: Q01DX009 (ip), vehicle: saline
[9] = dose: 100.0 mg/kg/injection, schedule: Q01DX009 (ip), vehicle: saline
[10] = dose: 100.0 mg/kg/injection, schedule: Q04DX003 (ip), vehicle: saline
[11] = dose: 200.0 mg/kg/injection, schedule: Q01DX009 (ip), vehicle: saline
[12] = dose: 200.0 mg/kg/injection, schedule: Q04DX003 (ip), vehicle: saline
[13] = dose: 100.0 mg/kg/injection, schedule: Q04DX003 (ip), vehicle: saline with Tween-80
[14] = dose: 200.0 mg/kg/injection, schedule: Q04DX003 (ip), vehicle: saline with Tween-80
[15] = dose: 400.0 mg/kg/injection, schedule: Q04DX003 (ip), vehicle: saline with Tween-80
[16] = dose: 50.0 mg/kg/injection, schedule: Q01DX001 (ip), vehicle: saline
[17] = dose: 100.0 mg/kg/injection, schedule: Q01DX009 (ip), vehicle: Klucel (hydroxypropylcellulose) (HPC)
[18] = dose: 200.0 mg/kg/injection, schedule: Q01DX009 (ip), vehicle: Klucel (hydroxypropylcellulose) (HPC)
[19] = dose: 400.0 mg/kg/injection, schedule: Q01DX009 (ip), vehicle: Klucel (hydroxypropylcellulose) (HPC)
[20] = dose: 100.0 mg/kg/injection, schedule: Q04DX003 (ip), vehicle: Klucel (hydroxypropylcellulose) (HPC)
[21] = dose: 200.0 mg/kg/injection, schedule: Q04DX003 (ip), vehicle: Klucel (hydroxypropylcellulose) (HPC)
[22] = dose: 400.0 mg/kg/injection, schedule: Q04DX003 (ip), vehicle: Klucel (hydroxypropylcellulose) (HPC)

Measured: T/C

Nc1cccc(CC(=O)Nc2ccc(S(=O)(=O)F)cc2)c1
inactive: [1] 90 % of control | [2] 106 % of control | [3] 100 % of control

CCN(c1ccccc1)S(=O)(=O)C(C)S(=O)(=O)N(CC)c1ccccc1
inactive: dose: 100.0 mg/kg/injection, schedule: Q01DX001 (ip), vehicle: saline with Tween-80 97 % of control | dose: 200.0 mg/kg/injection, schedule: Q01DX001 (ip), vehicle: saline with Tween-80 94 % of control | dose: 400.0 mg/kg/injection, schedule: Q01DX001 (ip), vehicle: saline with Tween-80 103 % of control

CN(CC(=O)C(C(N)=O)c1ccccc1)c1ccccc1 (centres undefined)
inactive: [4] 96 % of control | [5] 93 % of control | [6] 93 % of control | [7] 102 % of control

CC(CN)N(C)C (centres undefined)
inactive: [8] 89 % of control | [9] 95 % of control | [10] 93 % of control | [11] 89 % of control | [12] 97 % of control

O=C(O)C1=CCC=CC1
inactive: [13] 98 % of control | [14] 109 % of control | [15] 106 % of control

CN(C)CCCN1CCCCC1
inactive: [16] 106 % of control | [1] 115 % of control | [2] 110 % of control | [3] 104 % of control

CC1=C(CC/C(C)=C/CCC(=O)O)C(C)(C)CCC1
inactive: [8] 100 % of control | [9] 100 % of control | [10] 116 % of control | [11] 98 % of control | [12] 100 % of control | dose: 400.0 mg/kg/injection, schedule: Q04DX003 (ip), vehicle: saline 111 % of control

CCCC(C)C(C)CC (centres undefined)
inactive: dose: 25.0 mg/kg/injection, schedule: Q01DX001 (ip), vehicle: saline sonified 107 % of control | dose: 50.0 mg/kg/injection, schedule: Q01DX001 (ip), vehicle: saline sonified 98 % of control | dose: 100.0 mg/kg/injection, schedule: Q01DX001 (ip), vehicle: saline sonified 93 % of control

ClCC(Br)CBr (centres undefined)
inactive: dose: 75.0 mg/kg/injection, schedule: Q01DX001 (ip), vehicle: saline 106 % of control | dose: 150.0 mg/kg/injection, schedule: Q01DX001 (ip), vehicle: saline 104 % of control

O=c1[nH]c2cnccc2c(=O)n1OS(=O)(=O)c1ccccc1
inactive: dose: 50.0 mg/kg/injection, schedule: Q01DX009 (ip), vehicle: Klucel (hydroxypropylcellulose) (HPC) 90 % of control | [17] 90 % of control | [18] 97 % of control

CN(C)C(=O)Sc1ccc([N+](=O)[O-])cc1
inactive: [13] 105 % of control | [14] 111 % of control | [15] 104 % of control

O=C(O)C1=C2C(=O)Nc3cccc(c32)C2(C1)C(=O)Nc1ccccc12 (centres undefined)
inactive: dose: 100.0 mg/kg/injection, schedule: Q04DX002 (ip), vehicle: saline with Tween-80 103 % of control | dose: 200.0 mg/kg/injection, schedule: Q04DX002 (ip), vehicle: saline with Tween-80 103 % of control | dose: 400.0 mg/kg/injection, schedule: Q04DX002 (ip), vehicle: saline with Tween-80 103 % of control

CN(C)c1ccc(C=O)c([N+](=O)[O-])c1
inactive: [17] 97 % of control | [18] 101 % of control | [19] 105 % of control

OCCOCCOCCOCCO
inactive: [1] 109 % of control | [2] 105 % of control | [3] 100 % of control

COC1OC(COC(=O)c2ccccc2)C(OS(=O)(=O)c2ccc(C)cc2)C1OCc1ccccc1 (centres undefined)
inactive: [4] 98 % of control | [5] 93 % of control | [6] 95 % of control | [7] 95 % of control

Cn1nc2c(N)ncnc2c1C1OC(CO)C(O)C1O (centres undefined)
inactive: dose: 100.0 mg/kg/injection, schedule: Q01DX005 (ip), vehicle: saline 116 % of control | dose: 200.0 mg/kg/injection, schedule: Q01DX005 (ip), vehicle: saline 106 % of control

COC(=O)c1ccccc1C(=S)N1CCOCC1
inactive: [20] 97 % of control | [21] 96 % of control | [22] 94 % of control

C=CCc1ccc(OCCOCCNC2C(C)CCCC2(C)C)c(OC)c1 (centres undefined)
inactive: dose: 5.0 mg/kg/injection, schedule: Q01DX009 (ip), vehicle: Klucel (hydroxypropylcellulose) (HPC) 101 % of control | dose: 5.0 mg/kg/injection, schedule: Q04DX003 (ip), vehicle: Klucel (hydroxypropylcellulose) (HPC) 96 % of control | dose: 10.0 mg/kg/injection, schedule: Q01DX009 (ip), vehicle: Klucel (hydroxypropylcellulose) (HPC) 100 % of control | dose: 10.0 mg/kg/injection, schedule: Q04DX003 (ip), vehicle: Klucel (hydroxypropylcellulose) (HPC) 90 % of control | dose: 20.0 mg/kg/injection, schedule: Q01DX009 (ip), vehicle: Klucel (hydroxypropylcellulose) (HPC) 97 % of control | dose: 20.0 mg/kg/injection, schedule: Q04DX003 (ip), vehicle: Klucel (hydroxypropylcellulose) (HPC) 96 % of control

Cc1cc(=O)n(Cc2ccccc2)c(O)c1C
inactive: [17] 95 % of control | [20] 94 % of control | [18] 91 % of control | [21] 94 % of control | [19] 93 % of control | [22] 98 % of control

COc1ccc(/C=N/NC(=O)c2ccc(Cl)c(Cl)c2)cc1
inactive: [17] 91 % of control | [18] 100 % of control | [19] 90 % of control

C[n+]1cccc(CNC(=O)COc2ccc(Cl)c(Cl)c2)c1
inactive: dose: 25.0 mg/kg/injection, schedule: Q01DX001 (ip), vehicle: saline 106 % of control | [16] 103 % of control | [1] 97 % of control and 109 % of control

O=C(CCl)Nc1ccc(S(=O)(=O)c2ccc([N+](=O)[O-])cc2)cc1
inactive: dose: 30.0 mg/kg/injection, schedule: Q01DX001 (ip), vehicle: saline 94 % of control | dose: 75.0 mg/kg/injection, schedule: Q01DX009 (ip), vehicle: saline 95 % of control | dose: 75.0 mg/kg/injection, schedule: Q04DX003 (ip), vehicle: saline 92 % of control | [1] 91 % of control | dose: 150.0 mg/kg/injection, schedule: Q01DX009 (ip), vehicle: saline 96 % of control | dose: 150.0 mg/kg/injection, schedule: Q04DX003 (ip), vehicle: saline 91 % of control | dose: 300.0 mg/kg/injection, schedule: Q01DX001 (ip), vehicle: saline 94 % of control | dose: 300.0 mg/kg/injection, schedule: Q01DX009 (ip), vehicle: saline 101 % of control | dose: 300.0 mg/kg/injection, schedule: Q04DX003 (ip), vehicle: saline 94 % of control

Cc1ccc(Nc2nc(N)nc(N)c2N)c(C)c1
inactive: dose: 12.0 mg/kg/injection, schedule: Q01DX Z (ip), vehicle: saline 110 % of control

Oc1ccccc1C=Nc1cnc2ccccc2c1
inactive: [5] 95 % of control | [6] 98 % of control | [7] 95 % of control

CC(C)CC(NS(=O)(=O)Cc1ccccc1)C(=O)NN (centres undefined)
inactive: dose: 100.0 mg/kg/injection, schedule: Q01DX001 (ip), vehicle: other 98 % of control | dose: 200.0 mg/kg/injection, schedule: Q01DX001 (ip), vehicle: other 96 % of control | dose: 400.0 mg/kg/injection, schedule: Q01DX001 (ip), vehicle: other 110 % of control

Cc1ncc(CO)c(C2NOCc3c(Cl)cc4c(c32)OCO4)c1O (centres undefined)
inactive: dose: 100.0 mg/kg/injection, schedule: Q01DX009 (ip), vehicle: saline with Tween-80 90 % of control | dose: 200.0 mg/kg/injection, schedule: Q01DX009 (ip), vehicle: saline with Tween-80 95 % of control | dose: 400.0 mg/kg/injection, schedule: Q01DX009 (ip), vehicle: saline with Tween-80 94 % of control
